# Numbers after ± are expanded uncertainties.
# Conditions: Liquid, Vibrating tube method
smiles,measurement,setting,value
CCC(C)O (centres undefined) [butan-2-ol],mass density,"293.15 K, 100 kPa",806.7 ± 0.7 kg/m3
same,mass density,"293.15 K, 1000 kPa",807.4 ± 0.7 kg/m3
same,mass density,"293.15 K, 5000 kPa",810.4 ± 0.7 kg/m3
same,mass density,"293.15 K, 10000 kPa",814 ± 0.7 kg/m3
same,mass density,"293.15 K, 15000 kPa",817.4 ± 0.7 kg/m3
same,mass density,"293.15 K, 20000 kPa",820.7 ± 0.7 kg/m3
same,mass density,"293.15 K, 25000 kPa",823.9 ± 0.8 kg/m3
same,mass density,"293.15 K, 30000 kPa",826.9 ± 0.8 kg/m3
same,mass density,"293.15 K, 35000 kPa",829.9 ± 0.8 kg/m3
same,mass density,"293.15 K, 40000 kPa",832.7 ± 0.8 kg/m3
same,mass density,"293.15 K, 45000 kPa",835.4 ± 0.8 kg/m3
same,mass density,"293.15 K, 50000 kPa",838.1 ± 0.8 kg/m3
same,mass density,"293.15 K, 55000 kPa",840.6 ± 0.8 kg/m3
same,mass density,"293.15 K, 60000 kPa",843.2 ± 0.8 kg/m3
same,mass density,"293.15 K, 65000 kPa",845.7 ± 0.8 kg/m3
same,mass density,"293.15 K, 70000 kPa",848 ± 0.9 kg/m3
same,mass density,"293.15 K, 80000 kPa",852.6 ± 0.9 kg/m3
same,mass density,"293.15 K, 90000 kPa",857.1 ± 0.9 kg/m3
same,mass density,"293.15 K, 100000 kPa",861.2 ± 0.9 kg/m3
same,mass density,"293.15 K, 110000 kPa",865.3 ± 0.9 kg/m3
same,mass density,"293.15 K, 120000 kPa",869.2 ± 1 kg/m3
same,mass density,"293.15 K, 130000 kPa",873 ± 1 kg/m3
same,mass density,"293.15 K, 140000 kPa",876.6 ± 1 kg/m3
same,mass density,"298.15 K, 100 kPa",802.6 ± 0.7 kg/m3
same,mass density,"298.15 K, 1000 kPa",803.3 ± 0.7 kg/m3
same,mass density,"298.15 K, 5000 kPa",806.4 ± 0.7 kg/m3
same,mass density,"298.15 K, 10000 kPa",810.1 ± 0.7 kg/m3
same,mass density,"298.15 K, 15000 kPa",813.6 ± 0.7 kg/m3
same,mass density,"298.15 K, 20000 kPa",817 ± 0.7 kg/m3
same,mass density,"298.15 K, 25000 kPa",820.2 ± 0.8 kg/m3
same,mass density,"298.15 K, 30000 kPa",823.4 ± 0.8 kg/m3
same,mass density,"298.15 K, 35000 kPa",826.3 ± 0.8 kg/m3
same,mass density,"298.15 K, 40000 kPa",829.2 ± 0.8 kg/m3
same,mass density,"298.15 K, 45000 kPa",832 ± 0.8 kg/m3
same,mass density,"298.15 K, 50000 kPa",834.7 ± 0.8 kg/m3
same,mass density,"298.15 K, 55000 kPa",837.4 ± 0.8 kg/m3
same,mass density,"298.15 K, 60000 kPa",839.9 ± 0.8 kg/m3
same,mass density,"298.15 K, 65000 kPa",842.4 ± 0.8 kg/m3
same,mass density,"298.15 K, 70000 kPa",844.8 ± 0.9 kg/m3
same,mass density,"298.15 K, 80000 kPa",849.5 ± 0.9 kg/m3
same,mass density,"298.15 K, 90000 kPa",854 ± 0.9 kg/m3
same,mass density,"298.15 K, 100000 kPa",858.2 ± 0.9 kg/m3
same,mass density,"298.15 K, 110000 kPa",862.4 ± 1 kg/m3
same,mass density,"298.15 K, 120000 kPa",866.2 ± 1 kg/m3
same,mass density,"298.15 K, 130000 kPa",870.1 ± 1 kg/m3
same,mass density,"298.15 K, 140000 kPa",873.7 ± 1 kg/m3
same,mass density,"313.15 K, 100 kPa",789.5 ± 0.7 kg/m3
same,mass density,"313.15 K, 1000 kPa",790.3 ± 0.7 kg/m3
same,mass density,"313.15 K, 5000 kPa",793.6 ± 0.7 kg/m3
same,mass density,"313.15 K, 10000 kPa",797.7 ± 0.7 kg/m3
same,mass density,"313.15 K, 15000 kPa",801.6 ± 0.7 kg/m3
same,mass density,"313.15 K, 20000 kPa",805.2 ± 0.8 kg/m3
same,mass density,"313.15 K, 25000 kPa",808.5 ± 0.8 kg/m3
same,mass density,"313.15 K, 30000 kPa",812.1 ± 0.8 kg/m3
same,mass density,"313.15 K, 35000 kPa",815.3 ± 0.8 kg/m3
same,mass density,"313.15 K, 40000 kPa",818.4 ± 0.8 kg/m3
same,mass density,"313.15 K, 45000 kPa",821.3 ± 0.8 kg/m3
same,mass density,"313.15 K, 50000 kPa",824.2 ± 0.8 kg/m3
same,mass density,"313.15 K, 55000 kPa",827 ± 0.8 kg/m3
same,mass density,"313.15 K, 60000 kPa",829.8 ± 0.9 kg/m3
same,mass density,"313.15 K, 65000 kPa",832.5 ± 0.9 kg/m3
same,mass density,"313.15 K, 70000 kPa",835 ± 0.9 kg/m3
same,mass density,"313.15 K, 80000 kPa",839.9 ± 0.9 kg/m3
same,mass density,"313.15 K, 90000 kPa",844.7 ± 0.9 kg/m3
same,mass density,"313.15 K, 100000 kPa",849.1 ± 1 kg/m3
same,mass density,"313.15 K, 110000 kPa",853.4 ± 1 kg/m3
same,mass density,"313.15 K, 120000 kPa",857.5 ± 1 kg/m3
same,mass density,"313.15 K, 130000 kPa",861.5 ± 1 kg/m3
same,mass density,"313.15 K, 140000 kPa",865.4 ± 1 kg/m3
same,mass density,"333.15 K, 100 kPa",770.8 ± 0.7 kg/m3
same,mass density,"333.15 K, 1000 kPa",771.7 ± 0.7 kg/m3
same,mass density,"333.15 K, 5000 kPa",775.6 ± 0.7 kg/m3
same,mass density,"333.15 K, 10000 kPa",780.2 ± 0.7 kg/m3
same,mass density,"333.15 K, 15000 kPa",784.6 ± 0.7 kg/m3
same,mass density,"333.15 K, 20000 kPa",788.8 ± 0.8 kg/m3
same,mass density,"333.15 K, 25000 kPa",792.6 ± 0.8 kg/m3
same,mass density,"333.15 K, 30000 kPa",796.3 ± 0.8 kg/m3
same,mass density,"333.15 K, 35000 kPa",800 ± 0.8 kg/m3
same,mass density,"333.15 K, 40000 kPa",803.4 ± 0.8 kg/m3
same,mass density,"333.15 K, 45000 kPa",806.6 ± 0.8 kg/m3
same,mass density,"333.15 K, 50000 kPa",809.7 ± 0.8 kg/m3
same,mass density,"333.15 K, 55000 kPa",812.8 ± 0.9 kg/m3
same,mass density,"333.15 K, 60000 kPa",815.8 ± 0.9 kg/m3
same,mass density,"333.15 K, 65000 kPa",818.7 ± 0.9 kg/m3
same,mass density,"333.15 K, 70000 kPa",821.4 ± 0.9 kg/m3
same,mass density,"333.15 K, 80000 kPa",826.7 ± 0.9 kg/m3
same,mass density,"333.15 K, 90000 kPa",831.9 ± 1 kg/m3
same,mass density,"333.15 K, 100000 kPa",836.7 ± 1 kg/m3
same,mass density,"333.15 K, 110000 kPa",841.2 ± 1 kg/m3
same,mass density,"333.15 K, 120000 kPa",845.5 ± 1 kg/m3
same,mass density,"333.15 K, 130000 kPa",849.8 ± 1.1 kg/m3
same,mass density,"333.15 K, 140000 kPa",853.8 ± 1.1 kg/m3
same,mass density,"353.21 K, 100 kPa",750.3 ± 0.7 kg/m3
same,mass density,"353.21 K, 1000 kPa",751.4 ± 0.7 kg/m3
same,mass density,"353.21 K, 5000 kPa",756 ± 0.7 kg/m3
same,mass density,"353.21 K, 10000 kPa",761.3 ± 0.7 kg/m3
same,mass density,"353.21 K, 15000 kPa",766.4 ± 0.8 kg/m3
same,mass density,"353.21 K, 20000 kPa",771 ± 0.8 kg/m3
same,mass density,"353.21 K, 25000 kPa",775.4 ± 0.8 kg/m3
same,mass density,"353.21 K, 30000 kPa",779.5 ± 0.8 kg/m3
same,mass density,"353.21 K, 35000 kPa",783.5 ± 0.8 kg/m3
same,mass density,"353.21 K, 40000 kPa",787.2 ± 0.8 kg/m3
same,mass density,"353.21 K, 45000 kPa",790.8 ± 0.8 kg/m3
same,mass density,"353.21 K, 50000 kPa",794.5 ± 0.9 kg/m3
same,mass density,"353.21 K, 55000 kPa",797.7 ± 0.9 kg/m3
same,mass density,"353.21 K, 60000 kPa",801 ± 0.9 kg/m3
same,mass density,"353.21 K, 65000 kPa",804.1 ± 0.9 kg/m3
same,mass density,"353.21 K, 70000 kPa",807.2 ± 0.9 kg/m3
same,mass density,"353.21 K, 80000 kPa",812.9 ± 1 kg/m3
same,mass density,"353.21 K, 90000 kPa",818.3 ± 1 kg/m3
same,mass density,"353.21 K, 100000 kPa",823.5 ± 1 kg/m3
same,mass density,"353.21 K, 110000 kPa",828.5 ± 1.1 kg/m3
same,mass density,"353.21 K, 120000 kPa",833.1 ± 1.1 kg/m3
same,mass density,"353.21 K, 130000 kPa",837.6 ± 1.1 kg/m3
same,mass density,"353.21 K, 140000 kPa",842 ± 1.1 kg/m3
same,mass density,"373.24 K, 1000 kPa",729.1 ± 0.7 kg/m3
same,mass density,"373.24 K, 5000 kPa",734.5 ± 0.7 kg/m3
same,mass density,"373.24 K, 10000 kPa",740.8 ± 0.7 kg/m3
same,mass density,"373.24 K, 15000 kPa",746.6 ± 0.8 kg/m3
same,mass density,"373.24 K, 20000 kPa",751.9 ± 0.8 kg/m3
same,mass density,"373.24 K, 25000 kPa",757 ± 0.8 kg/m3
same,mass density,"373.24 K, 30000 kPa",761.6 ± 0.8 kg/m3
same,mass density,"373.24 K, 35000 kPa",766.1 ± 0.8 kg/m3
same,mass density,"373.24 K, 40000 kPa",770.4 ± 0.8 kg/m3
same,mass density,"373.24 K, 45000 kPa",774.4 ± 0.9 kg/m3
same,mass density,"373.24 K, 50000 kPa",778.1 ± 0.9 kg/m3
same,mass density,"373.24 K, 55000 kPa",781.9 ± 0.9 kg/m3
same,mass density,"373.24 K, 60000 kPa",785.4 ± 0.9 kg/m3
same,mass density,"373.24 K, 65000 kPa",788.8 ± 0.9 kg/m3
same,mass density,"373.24 K, 70000 kPa",792.1 ± 1 kg/m3
same,mass density,"373.24 K, 80000 kPa",798.5 ± 1 kg/m3
same,mass density,"373.24 K, 90000 kPa",804.3 ± 1 kg/m3
same,mass density,"373.24 K, 100000 kPa",809.8 ± 1.1 kg/m3
same,mass density,"373.24 K, 110000 kPa",815.1 ± 1.1 kg/m3
same,mass density,"373.24 K, 120000 kPa",820.1 ± 1.1 kg/m3
same,mass density,"373.24 K, 130000 kPa",824.9 ± 1.2 kg/m3
same,mass density,"373.24 K, 140000 kPa",829.5 ± 1.2 kg/m3
same,mass density,"393.27 K, 1000 kPa",704.8 ± 0.7 kg/m3
same,mass density,"393.27 K, 5000 kPa",711.4 ± 0.7 kg/m3
same,mass density,"393.27 K, 10000 kPa",718.8 ± 0.7 kg/m3
same,mass density,"393.27 K, 15000 kPa",725.6 ± 0.8 kg/m3
same,mass density,"393.27 K, 20000 kPa",731.7 ± 0.8 kg/m3
same,mass density,"393.27 K, 25000 kPa",737.4 ± 0.8 kg/m3
same,mass density,"393.27 K, 30000 kPa",742.7 ± 0.8 kg/m3
same,mass density,"393.27 K, 35000 kPa",747.8 ± 0.8 kg/m3
same,mass density,"393.27 K, 40000 kPa",752.5 ± 0.9 kg/m3
same,mass density,"393.27 K, 45000 kPa",757 ± 0.9 kg/m3
same,mass density,"393.27 K, 50000 kPa",761.2 ± 0.9 kg/m3
same,mass density,"393.27 K, 55000 kPa",765.4 ± 0.9 kg/m3
same,mass density,"393.27 K, 60000 kPa",769.2 ± 0.9 kg/m3
same,mass density,"393.27 K, 65000 kPa",773 ± 1 kg/m3
same,mass density,"393.27 K, 70000 kPa",776.6 ± 1 kg/m3
same,mass density,"393.27 K, 80000 kPa",783.4 ± 1 kg/m3
same,mass density,"393.27 K, 90000 kPa",789.8 ± 1.1 kg/m3
same,mass density,"393.27 K, 100000 kPa",795.8 ± 1.1 kg/m3
same,mass density,"393.27 K, 110000 kPa",801.5 ± 1.1 kg/m3
same,mass density,"393.27 K, 120000 kPa",806.8 ± 1.2 kg/m3
same,mass density,"393.27 K, 130000 kPa",811.9 ± 1.2 kg/m3
same,mass density,"393.27 K, 140000 kPa",816.8 ± 1.2 kg/m3

# From the NIST ThermoML archive (doi:10.1016/j.jct.2015.05.027)
